In patent publication EP0386603A2, “Bisphenethanolamine” (F. HOFFMANN-LA ROCHE AG, priority 1989, dated 1990):

Assay: Effect on oxygen consumption in fasted rats (metabolic cages)
Assay type: in vivo, Albinoratten
Details: placebo-corrected; for Sauerstoffverbrauch 1. bis 3. Stunde: mean of hours 1-3 after dosing; for Sauerstoffverbrauch 1. bis 12. Stunde: mean of hours 1-12 after dosing
Method: Wirkung auf den Sauerstoffverbrauch
Gruppen von 6 männlichen Albinoratten im Gewicht von 160-180 g wurden nach 24 Stunden Fasten in Stoffwechselkäfige gesetzt. Die Käfige wurden mit konstant 6 Liter Raumluft/Minute, die bei einem Taupunkt von 11°C äquilibriert wurden belüftet. Von der Abluft wurde nach erneuter Aequilibrierung während Perioden von jeweils 14 Minuten Proben gesammelt und der Sauerstoff- und CO₂-Gehalt analysiert. Nach einer Anpassungszeit von 4 Stunden erhielten die Tiere entweder Placebo (5% Gummi arabicum) oder die Testsubstanz, nämlich BAP (suspendiert in 5% Gummi arabicum) per os oder intraperitoneal. Danach wurden 12 Stunden lang die Bestimmungen durchgeführt. In der nachfolgenden Tabelle ist der gemittelte Sauerstoffverbrauch nach Medikation während der ersten 3 Stunden und der gesamten Versuchsdauer (12 Stunden) als Prozentsatz des Sauerstoffverbrauchs der Anpassungsperiode (100%) angegeben, wobei entsprechende Korrekturen für Aenderungen in der Placebo-Gruppe berücksichtigt wurden, Tabelle

OCCOc1ccc(CCN(C[C@H](O)c2cccc(Cl)c2)C[C@H](O)c2cccc(Cl)c2)cc1 [BAP, 4-[2-[Bis[(R)-β-hydroxy-3-chlorphenäthyl]amino]äthyl]phenoxyäthanol]
Sauerstoffverbrauch 1. bis 3. Stunde (0,3 µM/kg i.p.): 134 % vom Wert der Vorperiode | Sauerstoffverbrauch 1. bis 12. Stunde (0,3 µM/kg i.p.): 108 % vom Wert der Vorperiode | Sauerstoffverbrauch 1. bis 3. Stunde (0,3 µM/kg p.os): 114 % vom Wert der Vorperiode | Sauerstoffverbrauch 1. bis 12. Stunde (0,3 µM/kg p.os): 105 % vom Wert der Vorperiode | Sauerstoffverbrauch 1. bis 3. Stunde (1 µM/kg i.p.): 172 % vom Wert der Vorperiode | Sauerstoffverbrauch 1. bis 12. Stunde (1 µM/kg i.p.): 121 % vom Wert der Vorperiode | Sauerstoffverbrauch 1. bis 3. Stunde (1 µM/kg p.os): 156 % vom Wert der Vorperiode | Sauerstoffverbrauch 1. bis 12. Stunde (1 µM/kg p.os): 122 % vom Wert der Vorperiode | Sauerstoffverbrauch 1. bis 3. Stunde (3 µM/kg i.p.): 174 % vom Wert der Vorperiode | Sauerstoffverbrauch 1. bis 12. Stunde (3 µM/kg i.p.): 134 % vom Wert der Vorperiode | Sauerstoffverbrauch 1. bis 3. Stunde (3 µM/kg p.os): 179 % vom Wert der Vorperiode | Sauerstoffverbrauch 1. bis 12. Stunde (3 µM/kg p.os): 137 % vom Wert der Vorperiode | Sauerstoffverbrauch 1. bis 3. Stunde (10 µM/kg i.p.): 186 % vom Wert der Vorperiode | Sauerstoffverbrauch 1. bis 12. Stunde (10 µM/kg i.p.): 154 % vom Wert der Vorperiode | Sauerstoffverbrauch 1. bis 3. Stunde (10 µM/kg p.os): 191 % vom Wert der Vorperiode | Sauerstoffverbrauch 1. bis 12. Stunde (10 µM/kg p.os): 157 % vom Wert der Vorperiode
